# Assay results from patent US4387098A, “Imidazo[1,2-a]quinoline derivatives useful as anxiolytics” (Roussel Uclaf, priority 1981, dated 1983).
# Legend:
# benzodiazepine receptor = benzodiazepine receptor affinity, [^3 H] flunitrazepam radio receptor binding (modified Squires and Braestrup) on rat forebrain membrane preparations; conditions: 0.6 nM [^3 H] flunitrazepam, read-out: IC50, inhibition of the specific binding of [^3 H] flunitrazepam by 50%
# Protocol: A. The affinity of the compounds for the benzodiazepine receptor was assessed using the radioligand [^3 H] flunitrazepam and modifications of the original radio receptor binding method of Squires and Braestrup (Nature, 1977, Vol. 266, p. 732). The values of Table V are nanomolar concentrations of test compound which inhibited the specific binding of 0.6 nM[^3 H] flunitrazepam to rat forebrain membrane preparations by 50% (IC50 nM).
# [1] = anxiolytic activity, one-day lick shock method of Vogel et al; assay type: in vivo; conditions: po, 24 h, orally, read-out: minimum effective dose (MED) at which there was an observed increase in shocks above control
# Protocol: B. Screening for anxiolytic activity was carried out by the one-day lick shock method of Vogel et al [Psychopharmacologia, 1971 Vol. 21, p. 1]. The values of Table VI are the minimum effective doses (MED) in mg/kg orally at which there was an observed increase in shocks above control.
Compound,IC50 (benzodiazepine receptor) [nM],minimal effective dose [1] [mg/kg]
CCCOc1cc2nc(C(=O)c3ccccc3)cn2c2ccccc12 [Example 12],1000,–
CCc1ccc2c(c1)c(OC)cc1nc(C(=O)c3ccc(OC)cc3)cn12 [Example 28],30,–
COc1cc2nc(C(=O)c3ccccc3)cn2c2ccc(C(C)C)cc12 [Example 15],25,10
COc1ccc(C(=O)c2cn3c(cc(OC)c4ccccc43)n2)cc1 [Example 18],37,–
CCc1ccc2c(c1)c(OC)cc1nc(C(C)=O)cn12 [Example 6],1300,20
"CCc1ccc(C(=O)c2cn3c(cc(OC)c4ccccc43)n2)cc1 [Example 11, (4-ethyl-phenyl)(5-methoxy-imidazo[1,2-a]quinolin-2-yl)-methanone]",67,–
CCCCOc1cc2nc(C(=O)c3ccccc3)cn2c2ccccc12 [Example 10],1000,–
COc1cc2nc(C(=O)c3cccs3)cn2c2ccccc12 [Example 21],24,–
COc1cc2nc(C(=O)c3ccccc3)cn2c2cc(C)ccc12 [Example 24],290,–
COc1cc2nc(C(=O)c3ccccc3)cn2c2ccc(F)cc12 [Example 31],74,–
CCc1ccc2c(c1)c(OC)cc1nc(C(=O)c3ccccn3)cn12 [Example 30],92,–
CCc1ccc2c(c1)c(OC)cc1nc(C(=O)c3ccccc3)cn12 [Example 1],14,20
CCc1ccc(C(=O)c2cn3c(cc(OC)c4cc(CC)ccc43)n2)cc1 [Example 29],51,–
"CC(C)Oc1cc2nc(C(=O)c3ccccc3)cn2c2ccccc12 [Example 8, (5-isopropoxy-imidazo[1,2-a]quinolin-2-yl)-phenyl-methanone]",470,–
COc1cc2nc(C(=O)c3ccccc3)cn2c2cc(Cl)ccc12 [Example 22],340,–
CCCCc1ccc2c(c1)c(OC)cc1nc(C(=O)c3ccccc3)cn12 [Example 16],57,25
COc1cc2nc(C(=O)c3ccccc3)cn2c2c(OC)cccc12 [Example 19],630,–
COc1cc2nc(C(=O)c3ccccc3)cn2c2cccc(C)c12 [Example 25],11,–
COc1cc2nc(C(=O)c3ccccc3)cn2c2ccc(Oc3ccccc3)cc12 [Example 27],210,–
COc1ccc2c(c1)c(OC)cc1nc(C(=O)c3ccccc3)cn12 [Example 14],51,–
CCOc1cc2nc(C(=O)c3ccccc3)cn2c2ccccc12 [Example 9],540,–
COc1cc2nc(C(=O)c3ccccc3)cn2c2ccc(C3CCCCC3)cc12 [Example 26],10000,–
COc1cc2nc(C(=O)c3ccccc3)cn2c2ccc(Cl)cc12 [Example 7],600,–
COc1ccc2c(OC)cc3nc(C(=O)c4ccccc4)cn3c2c1 [Example 3],5000,–
COc1cc2nc(C(=O)c3ccc(Cl)cc3)cn2c2ccccc12 [Example 20],96,–
COc1cc2nc(C(=O)c3ccc(C)cc3)cn2c2ccccc12 [Example 17],19,–
COc1cc2nc(C(=O)c3ccccc3)cn2c2ccc(C)cc12 [Example 13],21,25
COc1cc2nc(C(=O)c3ccccc3)cn2c2c(Cl)cccc12 [Example 23],132,–
"CSc1cc2nc(C(=O)c3ccccc3)cn2c2ccccc12 [Example 2, (5-methylthio-imidazo[1,2-a]quinolin-2-yl)-phenyl-methanone]",500,–
"COc1cc2nc(C(=O)c3ccccc3)cn2c2ccccc12 [Example 4, (5-methoxy-imidazo[1,2-a]quinolin-2-yl)-phenyl-methanone]",27,25
